# Tests used:
# Type in all cases: in vivo
# [1] = test system: M. incognita (Root Knot Nematode) larvae; assay: Evaluation of test compounds against M. incognita larvae in microtiter plate wells (movement score); conditions: larvae scored for movement after 20-24 hours; also: key: A score of '9' indicates inactive worms with a straight, sticklike morphology; A score of '8' indicates inactive worms with a limp, curled or curved morphology; A score of '7' indicates dead/paralyzed worms after 72 hours
# How it was run: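 Newly emerged M. incognita larvae in S Medium (buffered salt solution), 50-65 worms per well, exposed to test compounds in sealed microtiter wells. Movement scored after 20-24 h incubation; wells with obviously dead/paralyzed larvae scored positive. A score of "7" denotes dead/paralyzed worms after […].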
# [2] = test system: C. elegans (Bristol strain); assay: Evaluation of test compounds against C. elegans (motility, 96-well plate); parameters: key: 9=complete kill in 4 hours; 8=complete kill in 24 hours; 7=markedly reduced motility in approximately 95% of worms in 24 hours; 0=normal motility, same as controls; conditions: motility at 4 and 24 hours
# How it was run: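 Bristol-strain C. elegans in Na buffer added to wells containing dried compound (applied in 80% acetone) and incubated at 20 °C. Motility of adults and larvae scored subjectively but semi-quantitatively under a dissecting microscope at 4 and 24 h after immersion, plates tapped before reading.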
# [3] = test system: Diabrotica virgifera virgifera Leconte, 2nd instar western corn rootworm (WCR); assay: Western corn rootworm (WCR) soil test; parameters: key: 0 = no effect; 1 = 10-25% kill; 2 = 26-35% kill; 3 = 36-45% kill; 4 = 46-55% kill; 5 = 56-65% kill; 6 = 66-75% kill; 7 = 76-85% kill; 8 = 86-99% kill; 9 = 100% kill
# How it was run: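 Compound in 35% acetone/water applied to talc at 1.25 mg active ingredient per jar (about 50 kg/ha), solvent evaporated, then mixed with millet seed and moist soil. Ten 2nd-instar larvae per jar; mortality counted after 5 days, missing larvae scored dead.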
# [4] = test system: Aphis gossypii, cotton aphid (CA); assay: Cotton aphid (CA) cotyledon dip test; parameters: key: 0 = no effect; 1 = 10-25% kill; 2 = 26-35% kill; 3 = 36-45% kill; 4 = 46-55% kill; 5 = 56-65% kill; 6 = 66-75% kill; 7 = 76-85% kill; 8 = 86-99% kill; 9 = 100% kill; conditions: mortality after 5 days
# How it was run: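 Cotyledon-stage cotton plants infested overnight via a heavily infested leaf, then dipped in test solution (compound in 35% acetone/water, diluted with water) and dried. Mortality counted after 5 days.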
# [5] = test system: Spodoptera eridania, eggs-southern armyworm (SAW-Eggs); assay: Southern armyworm eggs (SAW-Eggs) treated diet test; parameters: key: 0 = no effect; 1 = 10-25% kill; 2 = 26-35% kill; 3 = 36-45% kill; 4 = 46-55% kill; 5 = 56-65% kill; 6 = 66-75% kill; 7 = 76-85% kill; 8 = 86-99% kill; 9 = 100% kill; conditions: mortality after 7 days
# How it was run: (§1)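 Compounds dissolved at 10,000 ppm in 35% acetone/water, diluted with water, applied to artificial diet in wells and dried. Southern corn rootworm or southern armyworm eggs placed on treated diet under vented covers; mortality counted after 7 days.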
# [6] = test system: Spodoptera eridania, 2nd instar larvae, southern armyworm (SAW); assay: Southern armyworm (SAW) leaf dip test; parameters: key: 0 = no effect; 1 = 10-25% kill; 2 = 26-35% kill; 3 = 36-45% kill; 4 = 46-55% kill; 5 = 56-65% kill; 6 = 66-75% kill; 7 = 76-85% kill; 8 = 86-99% kill; 9 = 100% kill
# How it was run: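 Compound is dissolved at 10,000 ppm in 35% acetone/water, then diluted with water. Lima bean leaves are dipped for 3 seconds, dried and placed with ten 2nd instar larvae on damp filter paper. Mortality, reduced feeding and molting interference are scored at 5 days.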
# [7] = test system: Tetranychus urticae (OP-resistant strain), 2-spotted spider mite (TSM); assay: 2-spotted spider mite (TSM) plant dip test; parameters: key: 0 = no effect; 1 = 10-25% kill; 2 = 26-35% kill; 3 = 36-45% kill; 4 = 46-55% kill; 5 = 56-65% kill; 6 = 66-75% kill; 7 = 76-85% kill; 8 = 86-99% kill; 9 = 100% kill; conditions: mortality after 2 days
# How it was run: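 OP-resistant mites (~100 per leaf) were transferred onto Sieva lima bean primary leaves about 2 h before treatment. Infested plants were dipped for 3 s in compound from a 10,000 ppm stock in 35% acetone/water, diluted with water. Mortality was counted after 2 days.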
# [8] = test system: Diabrotica undecimpunctata howardi, eggs-southern corn rootworm (SCR-Eggs); assay: Southern corn rootworm eggs (SCR-Eggs) treated diet test; parameters: key: 0 = no effect; 1 = 10-25% kill; 2 = 26-35% kill; 3 = 36-45% kill; 4 = 46-55% kill; 5 = 56-65% kill; 6 = 66-75% kill; 7 = 76-85% kill; 8 = 86-99% kill; 9 = 100% kill; conditions: mortality after 7 days
# How it was run: as §1
SMILES,M. incognita (150 ppm) score [1],Rating Against C. elegans (150 ppm) [2],WCR (50 ppm) rating [3],CA (300 ppm) rating [4],SAW Eggs (300 ppm) rating [5],SAW (300 ppm) rating [6],TSM (300 ppm) rating [7],SCR Eggs (1000 ppm) rating [8]
CCCCOC(=O)CSC(C[N+](=O)[O-])c1ccc(OC(F)(F)F)cc1 (racemic) [Example 120],9,0,0,0,0,0,0,0
O=C(CSC(C[N+](=O)[O-])c1ccc(OC(F)(F)F)cc1)OCc1ccccc1 (racemic) [Example 121],8,9,0,0,0,0,0,0
CCCSC(C[N+](=O)[O-])c1ccc(OC(F)(F)F)cc1 (racemic) [Example 122],0,8,9 (9 = 100% kill),0,7 (7 = 76-85% kill),2 (2 = 26-35% kill),7 (7 = 76-85% kill),0
COC(=O)CSC(C[N+](=O)[O-])c1ccccc1 (stereo not drawn) [Example 4],9,9,4 (4 = 46-55% kill),5 (5 = 56-65% kill),0,0,0,0
CCOC(=O)CSC(C[N+](=O)[O-])c1ccc(C)cc1 (stereo not drawn) [Example 5],9,9,4 (4 = 46-55% kill),0,0,0,0,0
COC(=O)CSC(C[N+](=O)[O-])c1ccc2c(c1)OCO2 (stereo not drawn) [Example 18],9,9,0,9 (9 = 100% kill),0,0,0,0
CCOC(=O)CSC(C[N+](=O)[O-])c1ccc2c(c1)OCO2 (stereo not drawn) [Example 19],9,9,3 (3 = 36-45% kill),0,0,0,0,0
CCCCOC(=O)CSC(C[N+](=O)[O-])c1ccc2c(c1)OCO2 (stereo not drawn) [Example 20],9,8,0,0,0,0,0,0
CC(C)CCCCCOC(=O)CSC(C[N+](=O)[O-])c1ccc2c(c1)OCO2 (stereo not drawn) [Example 21],8,0,0,7 (7 = 76-85% kill),0,0,0,0
CCCCC(CC)COC(=O)CSC(C[N+](=O)[O-])c1ccc2c(c1)OCO2 (stereo not drawn) [Example 22],0,0,0,0,0,0,0,0
O=[N+]([O-])CC(SCc1ccccc1)c1ccc2c(c1)OCO2 (stereo not drawn) [Example 23],8,7,4 (4 = 46-55% kill),4 (4 = 46-55% kill),9 (9 = 100% kill),8 (8 = 86-99% kill),0,9 (9 = 100% kill)
CCCSC(C[N+](=O)[O-])c1ccc2c(c1)OCO2 (stereo not drawn) [Example 24],9,8,0,0,0,0,0,0
COC(=O)CSC(C[N+](=O)[O-])c1ccc(OC)cc1 (stereo not drawn) [Example 47],9,9,4 (4 = 46-55% kill),0,0,0,4 (4 = 46-55% kill),0
CCOC(=O)CSC(C[N+](=O)[O-])c1ccc(OC)cc1 (stereo not drawn) [Example 48],9,9,0,0,0,0,0,0
CCCCOC(=O)CSC(C[N+](=O)[O-])c1ccc(OC)cc1 (stereo not drawn) [Example 49],9,9,0,0,0,0,0,0

# From patent publication US6358883B1, “Pesticidal and parasiticidal use of 1-aryl-1-(substituted thio, sulfinyl and sulfonyl)-2-nitroethane compounds” (American Cyanamid Company, priority 1998, dated 2002)
